# Laboratory results published in patent publication US4954490A, “11 β-substituted progesterone analogs” (Research Triangle Institute, priority 1988, dated 1990).
# Entries after “also recorded” stand apart in the source; their conditions may differ.
# Columns and labels:
# [1] = molecular target: T1, progesterone receptor (Oryctolagus cuniculus, UniProt P06186); assay: Relative binding affinity to progesterone receptor in uterine cytosol (displacement of tritium-labeled progesterone); set-up: species or system rabbit (estrogen-primed immature female); conditions: for Progestin RBA: relative to progesterone (=100), rabbit uterine cytosol; for P-RBA/G-RBA: ratio of RBA values for progesterone receptor to glucocorticoid receptor
# T1 construct: in the cytosol obtained from estrogen-primedimmature rabbit uterus; from tissue; host or cells: uterine cytosol of estrogen-primed immature female rabbits
# T1 sequence (P06186 1-930): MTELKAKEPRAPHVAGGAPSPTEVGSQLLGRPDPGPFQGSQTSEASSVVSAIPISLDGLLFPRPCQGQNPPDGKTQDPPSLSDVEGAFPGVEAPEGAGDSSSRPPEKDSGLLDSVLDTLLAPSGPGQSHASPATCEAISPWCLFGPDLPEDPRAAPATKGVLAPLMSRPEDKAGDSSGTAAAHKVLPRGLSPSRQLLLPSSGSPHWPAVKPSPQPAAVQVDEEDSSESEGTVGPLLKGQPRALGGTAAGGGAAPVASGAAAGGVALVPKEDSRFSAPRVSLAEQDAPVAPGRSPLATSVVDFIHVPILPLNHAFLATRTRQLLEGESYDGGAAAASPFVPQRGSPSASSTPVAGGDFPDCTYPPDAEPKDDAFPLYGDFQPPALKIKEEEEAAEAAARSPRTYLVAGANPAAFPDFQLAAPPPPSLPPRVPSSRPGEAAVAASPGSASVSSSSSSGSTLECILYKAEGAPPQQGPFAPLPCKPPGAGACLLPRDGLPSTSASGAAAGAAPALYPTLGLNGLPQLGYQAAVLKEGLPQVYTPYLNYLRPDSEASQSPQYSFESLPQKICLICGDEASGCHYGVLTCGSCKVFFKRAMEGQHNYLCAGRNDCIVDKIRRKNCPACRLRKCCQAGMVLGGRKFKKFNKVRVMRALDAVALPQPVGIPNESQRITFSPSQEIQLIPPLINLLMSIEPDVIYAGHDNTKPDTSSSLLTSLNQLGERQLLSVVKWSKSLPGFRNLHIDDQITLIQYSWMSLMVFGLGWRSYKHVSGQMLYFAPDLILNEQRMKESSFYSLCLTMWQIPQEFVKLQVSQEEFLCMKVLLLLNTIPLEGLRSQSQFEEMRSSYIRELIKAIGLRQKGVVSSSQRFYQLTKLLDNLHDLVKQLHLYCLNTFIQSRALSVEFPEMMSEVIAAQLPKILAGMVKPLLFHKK
# Description: (§1) The in vitro activity of the subject compounds was determined by measuring the binding affinities (RBA) of these compounds relative to progesterone for the progesterone receptor in the cytosol obtained from estrogen-primedimmature rabbit uterus and by measuring the RBA relative to dexamethasone for the glucocorticoid receptor from thymus of adrenalectomized rats. These assays were carried out by the procedures of J. R. Reel et al., Fertility and Sterility, 31, 552 (1979) (progesterone) and G. P. Chrousos et al., Endocrinology, 107, 472 (1980) (glucocorticoid).
# ^a Relative ability to displace tritiumlabeled progesterone from the
# receptor in uterine cytosol from estrogenprimed immature female rabbits a
# compared with progesterone (=100).
# [2] = system: endometrial response due to subcutaneous administration of progesterone; assay: Anti-McGinty intrauterine antiprogestational test; type: in vivo, estrogen-primed immature female rabbits; conditions: for ED90 (actual dose) / ED50 / ED90 (calculated): intrauterine; for ED90 (actual dose): actual dose giving ≥ 90% inhibition; for ED50 / ED90 (calculated): from % Inhib = a + b · ln dose
# Description: The antiprogestational activity of the compounds was studied after both intrauterine and oral administration. In each case the compound was tested for its ability to inhibit the endometrial response due to subcutaneous administration of progesterone to estrogen-primed immature female rabbits. The methodology used for the intrauterine test has been described by D. A. McGinty et al. See Endocrinology, 24, 829 (1939). For oral administration of test compounds, the method used was analogous to that of Clauberg. See Clauberg, Zentr. Gynakol., 54, 2757 (1930) as modified by McPhail J. Physiol. (London), 83, 145 (1935). Each active compound was characterized by a dose-related ability to block the progestational effect of simultaneously administered progesterone. When the percent inhibition was plotted versus the log of the dose, linear relationships were obtained. Linear regression analysis permitted calculation of the ED50 and ED90 values (the doses required for 50% and 90% inhibition of the progesterone effect, respectively). The actual dose which gave 90% or more inhibition is also given, although this value is probably less accurate than the calculated values which are based on the dose-response line. […] Since the intrauterine administration bypasses most of the drug-metabolizing systems of the body, especially the liver, intrinsic activity is expected to correlate reasonably well with binding activity to the receptor, according to currently held hypotheses regarding receptor binding.
# [3] = molecular target: T2, glucocorticoid receptor (Rattus norvegicus, UniProt P06536); assay: Relative binding affinity to glucocorticoid receptor of thymus (displacement of tritium-labeled dexamethasone); set-up: species or system rat (adrenalectomized); conditions: relative to dexamethasone (=100)
# T2 construct: glucocorticoid receptor from thymus of adrenalectomized rats; from tissue; host or cells: thymus of adrenalectomized rats
# T2 sequence (P06536 1-795): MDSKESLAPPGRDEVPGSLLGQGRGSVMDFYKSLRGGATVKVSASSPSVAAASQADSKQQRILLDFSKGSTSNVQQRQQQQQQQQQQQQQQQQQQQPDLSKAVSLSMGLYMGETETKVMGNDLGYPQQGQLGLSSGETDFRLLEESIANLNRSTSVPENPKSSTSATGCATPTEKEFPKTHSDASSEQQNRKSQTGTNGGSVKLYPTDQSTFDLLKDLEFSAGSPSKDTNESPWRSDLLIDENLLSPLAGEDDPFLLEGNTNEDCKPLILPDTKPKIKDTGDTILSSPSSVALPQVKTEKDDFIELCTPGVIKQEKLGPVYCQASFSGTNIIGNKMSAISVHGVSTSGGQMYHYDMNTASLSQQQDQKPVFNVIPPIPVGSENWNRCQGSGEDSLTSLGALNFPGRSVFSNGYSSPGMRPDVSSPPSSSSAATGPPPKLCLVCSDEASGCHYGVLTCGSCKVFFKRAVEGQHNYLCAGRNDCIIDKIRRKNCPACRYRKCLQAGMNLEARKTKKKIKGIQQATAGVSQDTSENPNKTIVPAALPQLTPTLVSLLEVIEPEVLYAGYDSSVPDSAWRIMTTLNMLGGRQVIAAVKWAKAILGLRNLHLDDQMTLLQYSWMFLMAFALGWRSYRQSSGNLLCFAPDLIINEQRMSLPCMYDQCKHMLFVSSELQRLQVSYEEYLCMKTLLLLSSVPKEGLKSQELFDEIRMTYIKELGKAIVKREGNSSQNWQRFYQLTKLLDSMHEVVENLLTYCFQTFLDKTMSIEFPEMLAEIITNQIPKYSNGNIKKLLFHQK
# Description: as §1
# ^b Relative ability to displace tritiumlabeled dexamethasone from the
# receptor of the thymus of adrenalectomized rats as compared to […]
# [4] = system: endometrial response due to subcutaneous administration of progesterone; assay: Oral antiprogestational activity (Anti-Clauberg); type: in vivo, estrogen-primed immature female rabbits; conditions: progesterone alone, total SC dose 0.8 mg, no oral compound, N=6
# Description: The antiprogestational activity of the compounds was studied after both intrauterine and oral administration. In each case the compound was tested for its ability to inhibit the endometrial response due to subcutaneous administration of progesterone to estrogen-primed immature female rabbits. The methodology used for the intrauterine test has been described by D. A. McGinty et al. See Endocrinology, 24, 829 (1939). For oral administration of test compounds, the method used was analogous to that of Clauberg. See Clauberg, Zentr. Gynakol., 54, 2757 (1930) as modified by McPhail J. Physiol. (London), 83, 145 (1935).
SMILES,Progestin RBA [1],Glucocort. RBA [3],P-RBA/G-RBA [1],also measured
"CC(=O)O[C@]1(C(C)=O)CC[C@H]2[C@@H]3C[C@@H](C)C4=CC(=O)CCC4=C3[C@@H](c3ccc(N(C)C)cc3)C[C@@]21C [OAc, H, β-CH3]",15,–,–,–
"CC(=O)O[C@]1(C(C)=O)CC[C@H]2[C@@H]3CCC4=CC(=O)CCC4=C3[C@@H](c3ccc(N(C)C)cc3)C[C@@]21C [Compound 8a, 17α-acetoxy-11β-(4-N,N-dimethylaminophenyl)-19-norpregna-4,9-diene-3,20-dione]",47,198,0.24,ED90 (actual dose) [2]: 2.0 µg; ED50 [2]: 0.41 µg; ED90 (calculated) [2]: 1.2 µg
"CC(=O)C1=CC[C@H]2[C@@H]3CCC4=CC(=O)CCC4=C3[C@@H](c3ccc(N(C)C)cc3)C[C@]12C [Compound 23, 11β-(4-N,N-Dimethylaminophenyl)-19-norpregna-4,9,16-triene-3,20-dione]",8,–,–,"ED90 (actual dose) [2]: 1.0 µg; ED50 [2]: 0.26 µg; ED90 (calculated) [2]: 0.81 µg; antiprogestational activity in vivo (in words) ([2]; rabbit, in vivo, listed as Δ-16 compound): even more potent activity; also recorded: exhibits strong antiprogestational activity; binding to the progesterone receptor (in words) [1]: binds relatively weakly to the progesterone receptor; RBA as fraction of the value of the 17α-acetoxy compounds ([1]; compared with the 17α-acetoxy compounds): less than one-fifth"
"CC[C@@H]1C[C@H]2[C@@H]3C[C@@H](C)C4=CC(=O)CCC4=C3[C@@H](c3ccc(N(C)C)cc3)C[C@]2(C)[C@H]1C(C)=O [H, Et, β-CH3, 68-methyl-16α-ethyl-118-(4-N,N-dimethylaminophenyl)-19-norpregna-4,9-diene-3,20-dione]",48,106,0.45,–
"CC(=O)[C@H]1CC[C@H]2[C@@H]3CCC4=CC(=O)CC[C@]4(C)[C@H]3CC[C@]12C [Progesterone, progesterone]",–,–,–,Wt of Uterus ([4]; ± SD): 3.06 ± 0.45 g; McPhail Index ([4]; scale 0-4): 3.96 ± 0.04
"CC(=O)[C@@]1(O)CC[C@H]2[C@@H]3CCC4=CC(=O)CCC4=C3[C@@H](c3ccc(N(C)C)cc3)C[C@@]21C [OH, H, H]",15,41,0.37,–
"CC(=O)[C@@]1(O)CC[C@H]2[C@@H]3C[C@H](C)C4=CC(=O)CCC4=C3[C@@H](c3ccc(N(C)C)cc3)C[C@@]21C [OH, H, α-CH3]",46,175,0.26,–
